Laboratory results taken from PMC12135066, “Design and Preclinical Evaluation of Novel uPAR-Targeting Radiopeptides Modified with an Albumin-Binding Entity” (Molecular Pharmaceutics, 2025).

Columns and labels:
[1] = Radiolytic stability of the radiopeptides in saline with L-ascorbic acid; settings: 50 MBq/nmol in saline, 150 MBq/300 µL, L-ascorbic acid (3 mg, 20 µL) and NaOAc (0.5 M, 30 µL), HPLC, product peak relative to t=0 (100%), average ± SD, n=3
Description: The radiolytic stability of the radiopeptides (50 MBq/nmol) in saline (150 MBq/300 μL) was assessed in the absence and presence of L-ascorbic acid (3 mg added in a volume of 20 μL). After an incubation period of 1, 4, and 24 h, aliquots of the solutions were analyzed using HPLC. The integrated peak area representing the intact radiopeptide was expressed as the percentage of the sum of all peaks of the chromatogram. The final amount of intact radiopeptide was expressed as the percentage of the product peak obtained at t = 0, which was set as 100% (Supporting Information).
The radiolytic stability of [177Lu]Lu-DOTA-AE105 and the new 177Lu-labeled uPAR-targeting
radiopeptides (50 MBq/nmol) was assessed in vitro in the formulated solution . The radiopeptide s were
diluted in saline to obtain an activity concentration of 150 MBq in 300 µL in the presence of L-ascorbic
acid (3 mg, 20 µL) and NaOAc (0.5 M, 30 µL) to compensate for the acidic pH. Aliquots of the dilutions
were analyzed using HPLC after incubation periods of 1 h, 4 h and 24 h . The integrated peak area
measured for the intact radioligand peak was expressed as the percentage of the sum of the integrated
peak areas of each peak present in the chromatogram. The final amount of intact radiopeptide at t = 1 h,
4 h and 24 h was expressed by correcting the obtained percentage of the product peak to this peak
obtained at t = 0, which was set as 100%.

[2] = tested on: human serum albumin (HSA); test: Albumin-binding properties in human blood plasma (ultrafiltration assay); settings: ultrafiltration (Amicon, 10 kDa), human blood plasma dilutions in PBS pH 7.4, [HSA]-to-[radiopeptide] 0.01–20000, 0.006 nmol, 37 °C 30 min, γ-counter; inverse ratio of B50, [177Lu]Lu-uPAR-01 set as 1.00; average curve of 3 experiments
Description: The relative albumin-binding affinities of the radiopeptides in mouse and human blood plasma were determined using an ultrafiltration assay with Amicon centrifugal filters (cutoff of 10 kDa; Merck Millipore), as previously reported (Supporting Information). A fixed amount of the respective radiopeptide (15 μL, ∼300 kBq, 0.006 nmol) was added to a defined volume (150 μL) of mouse and human blood plasma dilutions to obtain [mouse serum albumin (MSA)]-to-[radiopeptide] and [human serum albumin (HSA)]-to-[radiopeptide] molar concentration ratios of 0.01–12,500 and 0.01–20,000, respectively. The data were analyzed using a semilogarithmic Hill plot with the maximum binding set as 100% (GraphPad Prism software, version 8.3.1).
Determination of the Albumin-Binding Properties
Purpose: The radiopeptides were investigated with regard to their albumin-binding capabilities in vitro
as a measure to predict blood retention in vivo.
Methods: The relative albumin-binding affinity of the radiopeptides in mouse blood plasma (Rockland
Immunochemicals, Inc., U.S.A.) and human blood plasma (Stiftung Blutspende SRK Aargau-
Solothurn, Switzerland) were determined using an ultrafiltration method. The amount of mouse serum
albumin (MSA) and human serum albumin (HSA) in mouse and human blood plasma was defined as
550 μM and 800 μM, respectively, based on measurements using a dry chemistry analyzer (DRI-CHEM
4000i, FUJIFILM, Japan). A fixed amount of radiopeptide (50 MBq/nmol, ~300 kBq, 15 μL, 0.006
nmol) was added to a defined volume (150 μL) of mouse and human blood plasma and various dilutions
thereof in PBS pH 7.4, resulting in defined [MSA]-to-[radiopeptide] or [HSA]-to-[radiopeptide] molar
concentration ratios ranging from 0.01 ‒12500 and 0.01‒20000, respectively, followed by incubation of
the samples at 37 °C for 30 min. Ice-cold PBS (150 µL, pH 7.4) was added before loading the blood
plasma samples on Amicon centrifugal filters (cut -off of 10 kDa; Merck Millipore) followed by
centrifugation (14000 rcf, 30 min, 4 °C) to allow the separation of the plasma protein -bound from the
plasma-unbound (free) fractions of each sample. The inserts of the filter devices were inverted and centrifuged at 200 rcf for 3 min to recover the protein -bound radiopeptide. The activity in the filtrate
and filter unit was measured in a γ-counter (1480 Wizard, PerkinElmer) and the counts were combined
assuming that the fraction retained in the filter membrane was not bound to proteins. The protein -bound
fraction was expressed as percentage of the whole activity (i.e. plasma protein -bound activity, activity
measured in the filtrate and activity measured in the filter (set as 100%) ). The data were analyzed using
a semi-logarithmic plot assuming a maximum binding of 100%. The Hill equation was fitted to the data
points and the half -maximum binding ( B50) based on the average curve obtained from three independent
experiments (GraphPad Prism software, version 8.3 .1). The relative albumin-binding affinit ies of the
reference compound, whose relative binding affinity was set as 1.0. The results were presented as the
B50 value obtained from the average curve from 3 independent experiments.

[3] = Stability of the radiopeptides in mouse blood plasma; settings: mouse
Description: (§1) The radiopeptides (50 MBq/nmol) stabilized with L-ascorbic acid were diluted in mouse and human blood plasma and incubated at 37 °C. Aliquots were taken after 1, 4, and 24 h and analyzed using reversed-phase thin-layer chromatography (TLC) (Supporting Information).
(§2) aProduct peak expressed as percentage of the sum of integrated peak areas of the entire chromatogram relative to
(§3) the value obtained immediately after labeling (set as 100%), average ± standard deviation (SD) (n=3).
(§4) Stability of the Radiopeptides in Mouse and Human Blood Plasma
(§5) Purpose: The stability of the radiopeptides was assessed in mouse and human blood plasma as an
indication for their in vivo stability.
(§6) Methods: The radiopeptides (50 MBq/nmol) stabilized with L-ascorbic acid were diluted in mouse
(§7) blood plasma (Lot: 32321, Rockland Immunochemicals Inc., U.S.A.) or in human blood plasma
(§8) (Stiftung Blutspende SRK Aargau -Solothurn, Switzerland) at a concentration of 10 MBq/200 µL and
(§9) incubated at 37 °C over a 24 h time period. Control samples were prepared by diluting the radiopeptides
(§10) in saline at the same activity concentration. Aliquots of each dilution were taken after 1 h, 4 h, and 24 h
(§11) (2 µL, ~100 kBq) and investigated employing thin layer chromatography (TLC) methods on reversed-
(§12) phase TLC plates (MERCK Analytical Chromatography, TLC Silica gel 60 RP -18 F254s) as stationary
(§13) phase and a 3/7 (v/v) mixture of acetonitrile /citrate buffer (0.1 M, pH 5.5) as mobile phase. A dilution
(§14) of [177Lu]LuCl3/HCl 0.04 M (10 MBq/200 µL) was added on each TLC plate. The developed and dried
(§15) TLC plates were exposed to a phosphor screen (Super resolution screen PSR10450013, PerkinElmer)
(§16) for 1 min. The screen was read with a Cyclone Plus phosphor imager (PerkinElmer) and the peak
(§17) quantification was performed using OptiQuant Software (version 5.0).

[4] = n-Octanol/PBS distribution coefficients (logD values); settings: n-octanol/PBS pH 7.4, pH 7.4
Description: The radiopeptides diluted in phosphate-buffered saline (PBS) pH 7.4 (25 μL, ∼0.5 MBq, 0.01 nmol) were added to a mixture of PBS pH 7.4 (1475 μL) and n-octanol (1500 μL). The vials were vortexed vigorously for 1 min, followed by centrifugation (560 rcf, 6 min) for phase separation. Aliquots were taken from each phase and measured in a γ-counter (1480 Wizard, PerkinElmer). The distribution coefficients were calculated as the logarithmic value of the ratio of counts per minute (cpm) measured in the n-octanol phase relative to the cpm measured in the PBS phase.
Methods: The logD value of all radiopeptides was determined in a mixture of n-octanol and phosphate
buffered saline (PBS) pH 7.4 using phase separation followed by liquid-liquid extraction.
polystyrene radioimmunoassay (RIA) tubes were prepared for each radiopeptide with 1.5 mL n-octanol
and 1.475 mL PBS pH 7.4. The RIA tubes were rigorously vortexed and subsequently let to stand so
that the phase separation could take place. The radiopeptides (50 MBq/nmol) were diluted with PBS
pH 7.4 to obtain an activity concentration of 10 MBq/0.5 mL. A volume of 25 μL of these solutions
was added to each RIA tube (25 µL, ~0.5 MBq, 0.01 nmol) followed by vortexing for 1 min.
separation was achieved by centrifugation at 560 rcf for 6 min. The activity in the n-octanol and PBS
phase, respectively, was measured in a γ-counter (Wallac Wizard 1480, PerkinElmer).
coefficients were calculated as the logarithm of the ratio of counts per minute (cpm) measured in the n-
octanol phase relative to the cpm measured in the PBS pH 7.4 phase.
as described above three independent times for each radiopeptide.

[5] = Stability of the radiopeptides in human blood plasma; settings: human
Description: as §1, §2, §3, §4, §5
indication for their in vivo stability.
as §6, §7, §8, §9, §10, §11, §12, §13, §14, §15, §16, §17

[6] = tested on: HEK-uPAR xenograft-bearing nude mice; test: Biodistribution studies in HEK-uPAR xenograft-bearing nude mice; settings: average ± SD, n=3 animals
[7] = as above; settings: female, CD1/nude, mouse, 5 MBq (0.5 nmol), total radioactivity, 5 MBq, 0.5 nmol, decay-corrected, average ± SD, n=3 animals; for tissue uptake at 4 h: 4 h p.i.; for tissue uptake at 24 h: 24 h p.i.
[8] = target: T1, human uPAR (Homo sapiens, UniProt Q03405); test: uPAR-binding affinity (KD values), saturation experiments with HEK-uPAR cells; settings: saturation binding on HEK-uPAR cells, on ice (4 °C) 1 h, 1–1600 nM radiopeptide, ± AE105 40 µM; γ-counter; nonlinear regression; average ± SD, n=3
T1 construct: host or cells: HEK cells (HEK-uPAR)
T1 sequence (Q03405 23-335): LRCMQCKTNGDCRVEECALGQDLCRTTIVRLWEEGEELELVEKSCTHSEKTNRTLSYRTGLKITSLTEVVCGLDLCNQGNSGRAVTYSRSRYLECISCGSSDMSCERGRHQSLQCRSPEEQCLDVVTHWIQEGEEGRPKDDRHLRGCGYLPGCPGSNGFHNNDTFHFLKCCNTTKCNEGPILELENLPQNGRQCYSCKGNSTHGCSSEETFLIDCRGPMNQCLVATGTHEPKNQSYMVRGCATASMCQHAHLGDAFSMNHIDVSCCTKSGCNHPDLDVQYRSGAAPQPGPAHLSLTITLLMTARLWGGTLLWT
Procedure, shortened: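 HEK-uPAR cells incubated 1 h at 4 °C (on ice) with radiopeptide at 1–1600 nM final, with or without 40 μM AE105 as blocker. Cell-bound activity counted in a γ-counter after NaOH lysis; KD from nonlinear regression of specific binding (total minus unspecific), mean ± SD of n = 3.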

[9] = HEK-uPAR xenograft, HEK-uPAR xgft

## CC(C)C[C@H](NC(=O)[C@H](Cc1ccc(O)cc1)NC(=O)[C@@H](CCCNC(=N)N)NC(=O)[C@@H](CO)NC(=O)[C@H](Cc1ccccc1)NC(=O)[C@H](CC1CCCCC1)NC(=O)[C@H](CC(=O)O)NC(=O)[C@H](CCCCNC(=O)CCCc1ccc(I)cc1)NC(=O)CN1CCN(CC(=O)O)CCN(CC(=O)O)CCN(CC(=O)O)CC1)C(=O)N[C@@H](Cc1c[nH]c2ccccc12)C(=O)N[C@@H](CO)C(N)=O [[^177Lu]Lu-uPAR-01, metal not drawn]
[1]; 1 h
  radiolytic stability, % intact radiopeptide: 100 ± 0%
[1]; 4 h
  radiolytic stability, % intact radiopeptide: 100 ± 0%
[1]; 24 h
  radiolytic stability after 24 h, intact radiopeptide [%]: 93 ± 4%
[2]
  Relative albumin-binding affinity, human blood plasma: 1.00
[3]; blood plasma
  remaining at 1 h, 10 MBq/200 µL: 100%
  remaining at 24 h, 10 MBq/200 µL: 99 ± 1%
[3]; mouse blood plasma
  remaining at 4 h, 10 MBq/200 µL: 100%
[4]
  logD: 0.78 ± 0.05
[5]; blood plasma
  remaining at 1 h, 10 MBq/200 µL: 100%
  remaining at 24 h, 10 MBq/200 µL: 99 ± 1%
[5]; human blood plasma
  remaining at 4 h, 10 MBq/200 µL: 99 ± 2%
[6]; 4 h p.i.
  Xenograft-to-blood ratio: 0.57 ± 0.01
  Xenograft-to-kidney ratio: 1.6 ± 0.1
  Xenograft-to-liver ratio: 1.4 ± 0.1
[6]; 24 h p.i.
  Xenograft-to-blood ratio: 1.3 ± 0.1
  Xenograft-to-kidney ratio: 1.4 ± 0.3
  Xenograft-to-liver ratio: 3.3 ± 0.3
[7]; [9]
  tissue uptake at 4 h: 9.2 ± 0.2 %ID/g
  tissue uptake at 24 h: 5.8 ± 0.6 %ID/g
[7]; blood
  tissue uptake at 4 h: 16 ± 1 %ID/g
  tissue uptake at 24 h: 4.5 ± 0.2 %ID/g
[7]; bone
  tissue uptake at 4 h: 1.9 ± 0.1 %ID/g
  tissue uptake at 24 h: 0.81 ± 0.01 %ID/g
[7]; brain
  tissue uptake at 4 h: 0.32 ± 0.02 %ID/g
  tissue uptake at 24 h: 0.1 ± 0.01 %ID/g
[7]; heart
  tissue uptake at 4 h: 5.7 ± 0.2 %ID/g
  tissue uptake at 24 h: 1.9 ± 0.1 %ID/g
[7]; intestines
  tissue uptake at 4 h: 2.3 ± 0.3 %ID/g
  tissue uptake at 24 h: 0.94 ± 0.04 %ID/g
[7]; kidneys
  tissue uptake at 4 h: 5.6 ± 0.2 %ID/g
  tissue uptake at 24 h: 4.2 ± 0.8 %ID/g
[7]; liver
  tissue uptake at 4 h: 6.4 ± 0.3 %ID/g
  tissue uptake at 24 h: 1.8 ± 0.2 %ID/g
[7]; lung
  tissue uptake at 4 h: 9.4 ± 1 %ID/g
  tissue uptake at 24 h: 3.3 ± 0.3 %ID/g
[7]; muscle
  tissue uptake at 4 h: 1.4 ± 0.2 %ID/g
  tissue uptake at 24 h: 0.57 ± 0.07 %ID/g
[7]; pancreas
  tissue uptake at 4 h: 2 ± 0.3 %ID/g
  tissue uptake at 24 h: 0.77 ± 0.04 %ID/g
[7]; salivary glands
  tissue uptake at 4 h: 3.6 ± 0.3 %ID/g
  tissue uptake at 24 h: 1.5 ± 0.1 %ID/g
[7]; spleen
  tissue uptake at 4 h: 2.7 ± 0.1 %ID/g
  tissue uptake at 24 h: 1.7 ± 0.2 %ID/g
[7]; stomach
  tissue uptake at 4 h: 2 ± 0.1 %ID/g
  tissue uptake at 24 h: 0.78 ± 0.08 %ID/g
[8]
  Kd: 48 ± 6 nM
